Assay results: patent US20230142739A1, “PROTEIN-PROTEIN INTERACTION STABILIZERS” (The Regents of the University of California, priority 2020, published 2023)

Tests used:
ER [1] = molecular target: T1, ER (Homo sapiens, UniProt P31947); assay: MS (KD,app), ER; format: binding; settings: 24 hr incubation
ER [2] = molecular target: T1, ER; assay: Fp (EC50)/fold-stabilization of peptide, ER; format: binding; settings: 24 hr incubation
14-3-3σ(C42)/ERα-pp = molecular target: T2, 14-3-3σ(C42)/ERα-pp (Homo sapiens, UniProt P31947, C38N/N42C); assay: Fluorescence anisotropy, fragment titration to 14-3-3σ(C42) and fluorescein-ERα-pp; settings: 1 μM 14-3-3σ(C42), 100 nM fluorescein-ERα-pp; read-out: EC50 (anisotropy, stabilization of ERα-pp binding)
T2 construct: with a truncated C-terminus after T231; His6 (N, cleaved yes); made in house; host or cells: E. coli NiCo21 (DE3), pPROEX HTb
Experimental: We observed the same trend when we titrated the fragments into a mixture of 1 μM 14-3-3σ(C42) and 100 nM fluorescein-ERα-pp, conditions under which half of the peptide was initially bound. […] The maximum effect was instantaneous at a saturating concentration (100 μM).
Fluorescence Anisotropy. […] Final DMSO concentration in the assay was always 1%. Dilution series of 14-3-3 protein or fragments were made in black, round-bottom 384-microwell plates (Corning) in a final sample volume of 10 μL in triplicates. Fluorescence anisotropy measurements were performed directly and after overnight incubation at room-temperature, using a Tecan Infinite F500 plate reader (filter set λex: 485±20 nm, λem: 535±25 nm). Data reported are at endpoint. EC50 values were obtained from fitting the data with a four-parameter logistic model (4PL) in GraphPad Prism 6.

14-3-3/ERα complex = molecular target: T3, 14-3-3/ERα complex (Homo sapiens, UniProt P61981); assay: Selectivity screening FA, ERα peptide; format: binding
T3 construct: the full length 14-3-3γ was dialysis against 25 mM HEPES pH 7.5; made in house; host or cells: E. coli BL21(DE3), pPROEX HTb
T3 sequence (P61981 1-247): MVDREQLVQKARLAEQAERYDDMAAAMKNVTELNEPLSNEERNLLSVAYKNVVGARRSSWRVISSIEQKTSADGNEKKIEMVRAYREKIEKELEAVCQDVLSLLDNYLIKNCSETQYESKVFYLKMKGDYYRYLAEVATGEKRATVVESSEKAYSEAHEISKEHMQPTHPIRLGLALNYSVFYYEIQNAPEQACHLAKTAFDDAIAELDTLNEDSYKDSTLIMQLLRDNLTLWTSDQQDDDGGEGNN
From the text: Selectivity screening of covalent fragments. Drugging the hub protein 14-3-3 raises the challenge of selectivity. We hypothesized that the high level of cooperative behavior for 14-3-3/Pin1_72/28 complex is a function of the unique functionality and topology of the interface, specifically the +1 and +3 amino acid of Pin1_72 with the covalent fragment. We further rationalized that this cooperativity would likely translate to high selectivity. To test this hypothesis, fragments 13, 27 and 28 were screened at a single fragment concentration (100 μM) against a panel of 13 peptides as diverse representatives of 14-3-3 client proteins, differing in size and hydrophobicity of the +1 amino acid (FIG. 22A).
(§1) Fluorescence Anisotropy (FA) Assays.

14-3-3/Pin1_72 complex = molecular target: T4, 14-3-3/Pin1_72 complex (Homo sapiens, UniProt P61981); assay: Cooperativity analysis, 14-3-3 titrations at varied constant fragment concentration; format: binding; settings: 8 μM compound
T4 construct: the full length 14-3-3γ was dialysis against 25 mM HEPES pH 7.5; made in house; host or cells: E. coli BL21(DE3), pPROEX HTb
From the text: Cooperativity in ternary complex formation. In contrast to PPI inhibition, where affinity to one of the protein pockets is the driving force for drug development, design of molecular glues is driven by cooperative ternary complex formation. Both CC50 and SF values are concentration dependent values and might differ based on assay design. […] Cooperative complex formation is often accompanied by structural changes of the interface of a complex which translates to increased stability of the ternary com-plex. In order to assess cooperativity of the ternary complex, fragments 13, 23, 27 and 28 were selected for cooper-activity analysis. The α-factor of the fragments were determined using 14-3-3 titrations in the presence of varied, but constant concentration of fragment in a dose-dependent manner. […] Further, the interval of change in stabilization further describes the systems cooperative behaviour.
However, at higher concentration regimes significant assay interference was observed, probably due to compound aggregation. Fragments 23, 27 and 28 all reached saturation or approached saturation enabling accurate determination of α-factor. […] KD remains constant also at higher concentrations of FC-A, indicating non-specific effects.

14-3-3/NFκBp65 peptide = 14-3-3/NFκBp65 peptide (Homo sapiens, UniProt P31947); assay: Fluorescence polarization assay, FITC-NFκBp65 peptide binding to 14-3-3 with increasing fragment
From the text: As the primary assays to test for binding and activity we used X-ray protein crystallography (crystal soaking) and a fluorescence polarization assay (FP) employing a fluorophore-labelled (FITC) version of the NFκBp65 peptide. After some rounds of analogues testing, we were able to identify the molecules' electrochemical properties that are enabling the lysine attach to the carbonyl feature of the fragment. […] This reflects a principal feature of orthosteric PPI stabilization which is based on the direct, simultaneous physical interaction of the stabilizer with both protein partners.
In addition to the hydrophobic interaction of the primary phenyl ring of TCF521-129 with the side chain of Ile46, the 2,6-dimethylmorpholine substituent sits on top of this side chain and additionally contacts with one of its methyl groups Pro47 and Gly48. The opposite methyl is engaging a hydrophobic patch in the ‘roof’ of the 14-3-3 groove comprised of Leu218, Ile219, and […] (FIG. 9B, upper row). […] The potential PPI stabilizing activity of both fragments were tested in a fluorescence polarization assay measuring the binding of a fluorescently-labelled (FITC) NFκBp65 peptide to 14-3-3 in the presence of an increasing concentration of the fragment.

Pin1_72/14-3-3σΔC = molecular target: T5, Pin1_72/14-3-3σΔC (Homo sapiens, UniProt P31947); assay: X-ray crystal soaking; format: binding; settings: 10 mM fragment soak
T5 construct: The 14-3-3σ protein was C-terminally truncated (ΔC) after T231 to enhance crystallization; His6 (cleaved yes); made in house; host or cells: E. coli BL21(DE3), pPROEX HTb
Experimental: X-Ray Crystallography. […] B-Raf/14-3-3σΔC and Abl1/14-3-3σΔC crystals were grown in a sitting drop set up. […] All crystals were directly flash-frozen in liquid nitrogen and data acquisition took place at either the P11 beamline of […] campus, Hamburg, Germany) or i-03/i-24 beamline of the diamond light source (Oxford, UK) or in-house. Fragment screening was performed by crystal soaking, whereby a final concentration of 10 mM fragment was added to fully grown crystals (final DMSO ≤1%). The fragment/crystal mixtures incubated for seven days prior to data acquisition. The diffraction data were analyzed with […] pipeline and MolRep was used for phasing. For model refinement Coot, Refmac5 and phenix.refine were utilized in iterative cycles. The elbow software of the phenix suite was used for ligand preparation based on fragment SMILES. Figures were generated with PyMOL© (V2.0.6, Schrodinger LLC).

Pin1_72/14-3-3γ = molecular target: T6, Pin1_72/14-3-3γ (Homo sapiens, UniProt P61981+Q13526); assay: Fluorescence anisotropy protein titration, Pin1_72/14-3-3γ at constant compound; format: binding; settings: based on internal DMSO control and 100 μM fragment
T6 construct: the full length 14-3-3γ was dialysis against 25 mM HEPES pH 7.5; made in house; host or cells: E. coli BL21(DE3), pPROEX HTb
From the text: Inspired by the binding poses of 3 and 9 we combined their structural features to improve stabilization. […] In case of complex stabilization, a left shift of apparent KD values is expected, here described as stabilization factors (SF).
as §1

Pin1_72/14-3-3 complex = molecular target: T7, Pin1_72/14-3-3 complex (Homo sapiens, UniProt P61981); assay: Fluorescence anisotropy compound titration, Pin1_72/14-3-3 (CC50); format: binding
T7 construct: the full length 14-3-3γ was dialysis against 25 mM HEPES pH 7.5; made in house; host or cells: E. coli BL21(DE3), pPROEX HTb
T7 sequence (P61981 1-247): T3 sequence (P61981 1-247)
Experimental: Site-Directed Shift base fragment Screening. […] As measure of activity the inflection point of the curve was determined, representing the half-maximum complex formation (CC50).
as §1

T1 sequence (P31947 whole entry, other chains not shown): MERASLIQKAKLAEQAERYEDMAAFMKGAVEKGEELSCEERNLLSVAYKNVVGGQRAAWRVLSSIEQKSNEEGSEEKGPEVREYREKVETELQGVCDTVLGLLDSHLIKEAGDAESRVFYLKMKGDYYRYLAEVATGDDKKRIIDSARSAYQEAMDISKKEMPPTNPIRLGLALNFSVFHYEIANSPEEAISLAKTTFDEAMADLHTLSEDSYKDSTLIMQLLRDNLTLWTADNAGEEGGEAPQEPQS
T5 sequence (P31947 1-231 limits assumed, stated change not applied, other chains not shown): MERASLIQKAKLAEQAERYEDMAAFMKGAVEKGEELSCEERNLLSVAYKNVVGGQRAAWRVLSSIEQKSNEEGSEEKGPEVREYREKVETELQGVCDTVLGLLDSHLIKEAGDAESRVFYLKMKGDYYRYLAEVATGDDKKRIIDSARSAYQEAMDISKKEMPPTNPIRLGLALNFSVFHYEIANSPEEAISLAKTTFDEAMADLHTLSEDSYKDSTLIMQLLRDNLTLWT
Chain of 14-3-3/NFκBp65 peptide (P31947 whole entry, other chains not shown, the tested form may be a part): as the sequence (P31947 whole entry, other chains not shown) above
T2 sequence (P31947 1-231 C38N/N42C, other chains not shown): as the sequence (P31947 1-231 limits assumed, stated change not applied, other chains not shown) above, with C38N, N42C counted along it

CC(C)(Oc1ccc(Cl)cc1)C(=O)N1CCC(CNC(=O)CCl)CC1
Kd (ER [1]): 84.3 µM
EC50 (ER [2]): 38.9 µM

CC(C)(Oc1ccc(Cl)cc1)C(=O)N1CCC(CCNC(=O)CCl)CC1
Kd (ER [1]): 33.7 µM
EC50 (ER [2]): 32.7 µM

C=CC(C)(C)OC[C@H]1O[C@H](O[C@@H]2C3=C([C@H](C)COC(C)=O)C[C@H](O)[C@]3(C)/C=C3/[C@@H](COC)CC[C@H]3[C@@H](C)[C@H]2O)[C@H](O)[C@@H](OC(C)=O)[C@@H]1O [FC-A, fusicoccane-A]
EC50 (14-3-3σ(C42)/ERα-pp): 0.216 µM

C=CC(C)(C)OC[C@H]1O[C@H](O[C@@H]2C3=C([C@H](C)COC(C)=O)C[C@H](O)[C@]3(C)/C=C3/[C@@H](COC)CC[C@H]3[C@@H](C)[C@H]2O)[C@H](O)[C@@H](OC(C)=O)[C@@H]1O [FCA, Fusicoccin A, reference compound]
stabilization of the 14-3-3/ERα complex (14-3-3/ERα complex): 110 fold
SF 8 μM (14-3-3/Pin1_72 complex): ~10

CC(=O)N1CCN(S(=O)(=O)c2ccc(C=O)cc2)CC1 [TCF521-123, 4-[(4-acetylpiperazin-1-yl)sulfonyl]benzaldehyde]
PPI stabilizing activity (14-3-3/NFκBp65 peptide; highest concentrations tested): only a very weak

CC1CN(S(=O)(=O)c2ccc(C=O)cc2)CC(C)O1 (stereo not drawn) [TCF521-129, 4-[(2,6-dimethylmorpholin-4-yl)sulfonyl]benzaldehyde]
EC50 (14-3-3/NFκBp65 peptide; read-out: EC50 (stabilizes interaction of peptide with 14-3-3)): 370 µM

O=Cc1ccc(-n2ccnc2-c2ccccc2)c(OC(F)(F)F)c1 [compound 20, 4-(2-phenyl-1H-imidazol-1-yl)-3-(trifluoromethoxy)benzaldehyde]
PDB: electron density due to compound binding (Pin1_72/14-3-3σΔC): n. bind.

O=Cc1ccc(-n2ccnc2-c2ccccc2)c(Oc2ccccc2)c1 [compound 21, 3-phenoxy-4-(2-phenyl-1H-imidazol-1-yl)benzaldehyde]
PDB: electron density due to compound binding (Pin1_72/14-3-3σΔC): n. bind.

O=Cc1ccc(-n2ccnc2-c2ccc(Br)cc2)cc1Br [compound 24, 2-bromo-4-(2-(4-bromophenyl)-1H-imidazol-1-yl)benzaldehyde]
SF (fold stabilization) (Pin1_72/14-3-3γ): 3.32
PDB: electron density due to compound binding (Pin1_72/14-3-3σΔC): n. bind

O=Cc1ccc(-n2ccnc2-c2cccnc2)cc1Br [compound 26, 2-bromo-4-(2-(pyridin-3-yl)-1H-imidazol-1-yl)benzaldehyde]
SF (fold stabilization) (Pin1_72/14-3-3γ): 2.27
activity in FA assay (Pin1_72/14-3-3 complex): limited effect
